# Experimental data: patent US12694522B2, “Systems and methods of correcting batch effect in biological images” (The University of Hong Kong, priority 2022, dated 2026)
# System: H2170 cells
# Assay: Drug treatment response of lung cancer cell line H2170 (IC50 concentration level of Table 1)
# Type: cell-based
# Settings: Homo sapiens, NCI-H2170; LUSC cell line H2170; concentration level annotated IC50* in Table 1; 24 hours treatment; read-out: IC50 (half-maximal inhibitory concentration of drug)
# Protocol: Morphological profiling is emerging as a promising technique in drug screening; however, the presence of batch effects poses a significant challenge. In this context, the efficacy of the CytoMAD approach is evaluated using label-free drug response assays conducted on LUSC (H2170) cells treated with docetaxel, afatinib, and gemcitabine at various concentrations across two distinct batches. This comprises 18 distinct drug treatment conditions, encompassing five concentration levels and one negative control. During the CytoMAD training process, only batch information and drug types are provided, withholding specific drug concentration data. This allows for the evaluation of the model's self-supervised capability to capture morphological changes across concentrations.
# Comparative analysis of phenotypic distributions across different drug treatments (representing different colored violins) showcases preserved patterns before and after the implementation of CytoMAD, confirming its capacity to retain cellular information. To further verify the cellular phenotypic preservation capacity of CytoMAD model, treatment response experiment is conducted with lung cancer cell line H2170. In this experiment, H2170 are treated with drugs of different mechanism of action (MoA) (i.e. Docetaxel as microtubule stabilizing agent, Afatinib as tyrosine kinase inhibitor in targeted therapy and Gemcitabine as antimetabolite), each with 5 concentration levels and a negative control with dimethyl sulfoxide (DMSO) for 24 hours as listed in Table 1. They are imaged using multi-ATOM for single-cell BF and QPI images on 6 days, forming 2 batches with ~100,000 cells per drug. Basically, this dataset consists of 2 batches of data, with each batch containing 3 different drug treatments and each treatment comprising 6 different concentration conditions.
row,IC50,Structure (SMILES)
1,19 nM,CN(C)C/C=C/C(=O)Nc1cc2c(Nc3ccc(F)c(Cl)c3)ncnc2cc1O[C@H]1CCOC1 [Afatinib]
2,3.76 nM,CC(=O)O[C@@]12CO[C@@H]1C[C@H](O)[C@@]1(C)C(=O)[C@H](O)C3=C(C)[C@@H](OC(=O)[C@H](O)[C@@H](NC(=O)OC(C)(C)C)c4ccccc4)C[C@@](O)([C@@H](OC(=O)c4ccccc4)[C@H]21)C3(C)C [Docetaxel]
3,7.51 nM,Nc1ccn([C@@H]2O[C@H](CO)[C@@H](O)C2(F)F)c(=O)n1 [Gemcitabine]
